Measurements from EP0497399A1, “Process for evaluating skin irritancy” (THE PROCTER & GAMBLE COMPANY, priority 1991, dated 1992).
≈ marks a conversion by molar mass, not a printed value. Where two headings read alike, the source gives them in different places. Marks after values point to notes of the source that are not given here.

Key:
HuK/F cultures [1] = assay: Lactate dehydrogenase release into culture medium (cytotoxicity); assay type: cell-based, human; settings: 48 hours
Procedure: (§1) For each HuK/F experiment, on a 24 well plate, 1 test material is evaluated at 4 concentrations (in quadruplicate wells per each concentration). In addition, 4 wells serve as medium control, and 4 wells as sodium dodecyl sulfate positive control. For each material evaluated, a dose-range finding study is performed at 0.001, 0.01, 0.1 and 1.0% (w/v) concentrations to determine the concentration eliciting minimum and maximum cytotoxicity in the MTT assay of cell viability. Based on the dose-range finding study, a range of test material concentrations is selected to determine the concentration eliciting minimum and maximum cytotoxicity in the MTT assay of cell viability. Based on the dose-range finding study, concentrations are selected at the maximal cytoxicity level and minimum level and at two 1/3 log intervals between these concentrations (e.g., if the maximum cytoxicity was at 1% with no cytotoxicity or cell death at 0.1% the concentrations evaluated subsequently would be 0.1, 0.3, 0.6 and 1%).
(§2) On treatment day, growth medium is aseptically aspirated, and the cell meshes are treated with two ml of test medium per well. Medium alone served as a no treatment control with 0.01% sodium dodecyl sulfate acting as a positive control (n=4 wells/group). All test plates are incubated at 37 °C and 5% carbon dioxide for 4 to 72 hours. Observations are made (e.g. changes in medium color) during the treatment period.
(§3) • 1. Place one untreated, precut mesh (no cells) into one or more wells to determine the background non-specific binding (NSB) of MTT to mesh and to act as absolute blank. In remaining wells place 1 mesh per well of the fibroblast/keratinocyte co-cultures. Add 2 ml of the assay medium which is supplied with the test kit. (Marrow-Tech supplies a medium). • 2. Remove medium from each well and add 2 ml/well of test agent diluted in assay medium. Refeed untreated control mesh and mesh without cells with assay medium. • 3. Incubate 48 hours at 37 °C in 5%. carbon dioxide atmosphere. • 4. Prepare a solution of 0.5 mg/ml MTT (Sigma Chemical Co. Catalog #M-2128) in assay medium. Centrifuge MTT/medium for 5 minutes at 3000 RPM to pellet undissolved crystals, then prewarm MTT in a 37 °C waterbath. • 5. Remove spent medium. Use 1 ml aliquot to analyze for lactate dehydrogenase and N-acetylglucosaminidase release and glucose; 1 ml can be saved under nitrogen at -70 °C for PGE2 analysis at a later time. • 6. Add 1 ml/well MTT/medium solution. Add medium without MTT to absolute blank well. Incubate cultures at 37 °C, 5% carbon dioxide for 3 hours. • 7. Remove MTT/medium and wash each mesh 2 times with 1 ml Dulbecco's phosphate buffered saline with calcium and magnesium (PBS). About 2-5 minutes each wash. • 8. Remove second PBS wash and add 2 ml isopropanol/well at room temperature 2 hours. This will extract the formazan from mitochondria of cells into the supernatant. (Note: the amount of MTT taken up by a cell culture and subsequently released by solvent extraction is proportional to the number of viable cells within the culture). Remove meshes from test well and stir on shaking vortex mixer. • 9. Transfer 200 microliter aliquots of the blue spent solvent from each well to a 96 well microtiter plate and read absorbance at 540 nm blanking to absolute blank (well not exposed to the MTT). The wells containing the NSB meshes should be subtracted from the test well absorbances before performing calculations below.

HuK/F cultures [2] = assay: N-acetylglucosaminidase release into culture medium (cytotoxicity); assay type: cell-based, human; settings: 48 hours
Procedure: as §1, §2, §3

[3] = MTT assay of cell viability in human skin cell co-cultures on nylon mesh; assay type: cell-based; settings: human, huk/f skin cell co-culture
Procedure: (§4) The MTT assay measures the reduction of a tetrazolium dye by electron transport in mitochondria of viable cells, and subsequent intracellular trapping of the formazan product. • 1. […] It is a measure of cell viability, and is performed on all treatment meshes immediately following medium collection. The MTT assay quantitates the reduction and subsequent trapping of a yellow tetrazolium dye which is reduced by the electron transport chain of functional mitochondria to a purple formazan dye. Briefly, MTT (3-[4,5-Dimethylthiazol-2yl]-2,5-diphenyltetrazolium bromide; Sigma Catalog #M-2128) powder is diluted in cell culture medium (0.5 mg./ml.) and pre-warmed to 37 °C before use. One ml of this dye solution is aliquoted onto each mesh, and the meshes are then incubated 3 hours at 37 °C and 5% CO₂. After incubation, the MTT is aspirated, and 2 ml. of pure isopropanol is used to extract the reduced dye for two hours at room temperature. The meshes are removed from the culture well and extraction solvent mixed by stirring before aliquoting for absorbance readings. The absorbance of each extract is read at 540 nm on a Biotek EL-312 (96 well) spectrophotometer. • 2.

HuF cells = assay type: cell-based, human
Procedure: Human neonatal fibroblasts are grown in Dulbecco's Modified Eagles Medium (DMEM) supplemented with 10% Fetal Bovine Serum (FBS) (provided by Marrow-Tech). This maintenance medium is the same formulation as described for the above co-cultures with the substitution of 10% FBS for the 2% Ultroser-G medium. Twenty-four hours prior to treatment fibroblasts are trypsinized (Gibco, Trypsin EDTA, Catalog #610-5200AG) by placing 2 ml of 0.25% trypsin over PBS washed cells. After about 1 minute the trypsin is aspirated and cells observed microscopically for rounding up and release from the culture dish. […]
In preliminary experiments with HuK/F co-cultures, two vital dye assays measuring cell viability can be used. […] The MTT assay quantitates the reduction and subsequent trapping of a yellow tetrazolium dye which is reduced by the electron transport chain of functional mitochondria to a purple formazan dye. […] The meshes are removed from the culture well and extraction solvent mixed by stirring before aliquoting for absorbance readings. The absorbance of each extract is read at 540 nm on a Biotek EL-312 (96 well) spectrophotometer. • 2. The Neutral Red Bioassay is described in Borenfreund, E., and Puerner, J., A Simple Quantitative Procedure Using Monolayer Cultures for Cytotoxicity Assays (HTD/NR-90), J. Tissue Cult. […] The cells are evaluated using the standard neutral red assay methodology. […]

HuK cells = assay type: cell-based, human
Procedure: Human neonatal foreskin keratinocytes are grown in keratinocyte growth medium-KGM complete with epidermal growth factor, insulin, hydrocortisone, anti-microbial agents and supplemented with bovine pituitary extract. (This medium is available from Clonetics). Cultures are maintained in a humidified atmosphere at 37 °C and 5% carbon dioxide throughout the experiment. Four days prior to treatments keratinocytes are trypsinized and subcultured. KGM medium is used and Clonetics reagents and methods used as per their standard protocol. Cells are plated at a density of about 33,000/ well in a 24 well Corning culture plate.
In preliminary experiments with HuK/F co-cultures, two vital dye assays measuring cell viability can be used. […] The MTT assay quantitates the reduction and subsequent trapping of a yellow tetrazolium dye which is reduced by the electron transport chain of functional mitochondria to a purple formazan dye. […] The meshes are removed from the culture well and extraction solvent mixed by stirring before aliquoting for absorbance readings. The absorbance of each extract is read at 540 nm on a Biotek EL-312 (96 well) spectrophotometer. • 2. The Neutral Red Bioassay is described in Borenfreund, E., and Puerner, J., A Simple Quantitative Procedure Using Monolayer Cultures for Cytotoxicity Assays (HTD/NR-90), J. Tissue Cult. […]

in vitro = settings: human, keratinocyte monolayer
Excerpt: The human keratinocyte monolayer cultures (available from Clonetics) were characterized using a fluorescein-labeled anti-cytokeratin antibody that stained the cytoskeleton of keratinocytes preferentially. This stain confirms that the cells are epithelial in nature.

HuK/F cultures [4] = assay: MTT assay of cell viability in human skin cell co-cultures on nylon mesh; assay type: cell-based
Procedure: as §4

[5] = human, huk/f skin cell co-culture, 48 h

Molecule: CC(C)(C)CC(C)(C)c1ccc(OCCOCC[N+](C)(C)Cc2ccccc2)cc1 [Benzethonium Chloride]
- Lactate Dehydrogenase Release (HuK/F cultures [1]; 0.001 % w/v): 433.5+ U/L
- Lactate Dehydrogenase Release (HuK/F cultures [1]; 0.003 % w/v): 1408.0+* U/L
- Lactate Dehydrogenase Release (HuK/F cultures [1]; 0.006 % w/v): 1344.0+* U/L
- Lactate Dehydrogenase Release (HuK/F cultures [1]; 0.01 % w/v): 1471.5+ U/L
- N-Acetylglucosaminidase Release (HuK/F cultures [2]; 0.001 % w/v): 21.20+ U/L
- N-Acetylglucosaminidase Release (HuK/F cultures [2]; 0.003 % w/v): 37.63+* U/L
- N-Acetylglucosaminidase Release (HuK/F cultures [2]; 0.006 % w/v): 37.10+* U/L
- N-Acetylglucosaminidase Release (HuK/F cultures [2]; 0.01 % w/v): 21.73+* U/L

Molecule: CCCCCCCCCCCC[N+](C)(C)[O-] [C12 DDAO, Dodecyl Dimethyl Amine Oxide]
- Lactate Dehydrogenase Release (HuK/F cultures [1]; 0.01 % w/v): 116.0+ U/L
- Lactate Dehydrogenase Release (HuK/F cultures [1]; 0.03 % w/v): 1270.0+ U/L
- Lactate Dehydrogenase Release (HuK/F cultures [1]; 0.06 % w/v): 1261.5+ U/L
- Lactate Dehydrogenase Release (HuK/F cultures [1]; 0.1 % w/v): 1196.0+ U/L
- N-Acetylglucosaminidase Release (HuK/F cultures [2]; 0.01 % w/v): 21.15 U/L
- N-Acetylglucosaminidase Release (HuK/F cultures [2]; 0.03 % w/v): 23.53+ U/L
- N-Acetylglucosaminidase Release (HuK/F cultures [2]; 0.06 % w/v): 23.33+ U/L
- N-Acetylglucosaminidase Release (HuK/F cultures [2]; 0.1 % w/v): 26.90+ U/L
- CC50 at 48 h [3]: 180 µg/mL (≈ 0.785 mM)

Molecule: CCCCCCCCCCCCOS(=O)(=O)[O-].[Na+] [Sodium Dodecyl Sulfate]
- more sensitive than HuK/F cultures (decrease in cell viability, NR assay) (HuF cells): about 10 fold
- CC50 at 48 h ([3]; concentration w/v giving 50% decrease in MTT dye uptake vs untreated control, HuK/F, 48 hours, read-out: MTT-50 Endpoint (Concentration w/v)): 57 µg/mL
- more sensitive than HuK/F cultures (decrease in cell viability, NR assay) (HuK cells): about 10 fold
- fold induction at 48 h (in vitro): ~2.5

Molecule: CCCCCCCC/C=C\CCCCCCCC(=O)OCCOCC(OCCO)C1OCC(OCCO)C1OCCO (stereo not drawn) [Tween 80, Polyoxyethylenesorbitan Monooleate]
- CC50 at 48 h [3]: 4300 µg/mL (≈ 7.11 mM)

Molecule: Ammonium Coconut Alkyl Ethoxylate 6.5 Sulfate [NH4CNAE6.5S]
- MTT-50 Endpoint (Concentration w/v) (HuK/F cultures [4]; [5]): 0.019%

Molecule: Ammonium Coconut Alkyl Ethoxylate 12 Sulfate [NH4CNAE12S]
- MTT-50 Endpoint (Concentration w/v) (HuK/F cultures [4]; [5]): 0.025%

Molecule: Benzalkonium Chloride
- Lactate Dehydrogenase Release (HuK/F cultures [1]; 0.0005 % w/v): 138.5+ U/L
- Lactate Dehydrogenase Release (HuK/F cultures [1]; 0.001 % w/v): 1032.0+* U/L
- Lactate Dehydrogenase Release (HuK/F cultures [1]; 0.005 % w/v): 1334.5+* U/L
- Lactate Dehydrogenase Release (HuK/F cultures [1]; 0.01 % w/v): 1236.5+* U/L
- N-Acetylglucosaminidase Release (HuK/F cultures [2]; 0.0005 % w/v): 14.95+ U/L
- N-Acetylglucosaminidase Release (HuK/F cultures [2]; 0.001 % w/v): 18.08+* U/L
- N-Acetylglucosaminidase Release (HuK/F cultures [2]; 0.005 % w/v): 19.93+* U/L
- N-Acetylglucosaminidase Release (HuK/F cultures [2]; 0.01 % w/v): 11.98+* U/L
- MTT-50 Endpoint (Concentration w/v) (HuK/F cultures [4]; concentration w/v giving 50% decrease in MTT dye uptake vs untreated control, HuK/F, 48 hours): 0.0007%
